Assay results: US20240148745A1, “COMPOUNDS FOR USE IN PROGRESSIVE MULTIPLE SCLEROSIS” (FONDAZIONE CENTRO SAN RAFFAELE, priority 2021, published 2024)

Legend:
[1] = test system: neonatal mouse oligodendrocyte progenitor cells; experiment: MTT metabolic activity / toxicity assay on neonatal mouse OPCs; type: cell-based; conditions: 1 and 10 microM, viability vs DMSO
Procedure: Purified oligodendrocyte progenitor cells (OPC) obtained from neonatal mouse primary mixed glial cultures^25 were plated at the density of 6*10^4 cells/cm^2 into poly-L-lysine-coated 96 well plates. One day after plating, the cells were incubated with or without drugs (10, 1 and 0.1 μM) in DMSO (0.001% vehicle) for 48 hours. Compounds were screened for their ability to reduce [3-(4,5-dimethylthiazol-2-yl)-2,5-diphenyltetrazolium bromide (MTT)] using an automated microplate reader (Bio-rad, Hercules, CA, USA), as previously described.^25 MTT (0.25 mg/ml, Sigma-Aldrich, St Louis, MO) was added to the culture medium during the final 4 hours of incubation.
Toxicity of the full list of drugs (274) at 10 μM have been evaluated on neonatal mouse oligodendrocyte progenitor cells via metabolic activity by MTT. First, drugs able to reduce OPC viability were selected, identifying 90 compounds with a cytotoxic effect defined by the Efficacy Ratio ER (absorbance of drug/absorbance of vehicle; PMID: 28387380) (ER≤0.4) which have not been further investigated—and 44 drugs inhibiting OPC metabolism at lower level (0.5<ER<0.8)—which were analyzed in the next experimental setting. As a result, 90 compounds were cytotoxic, 44 compounds with low toxicity were retested at 1 and 0.1 μM, 140 compounds (ER>0.8) were non-toxic and were re-tested.

[2] = test system: double fluorescence CG4 cell line (rat OPC line); experiment: Toxicity assay (cell density) on double fluorescence CG4 line; type: cell-based; conditions: 1 and 10 microM, viability vs basal condition
Excerpt: Primary validation on CG4 line toxicity and differentiation. An innovative OPC line was developed for fast and reliable high content screening (HCS) of small compounds inducing oligodendrocyte differentiation. The line was genetically engineered by lentiviral transduction of rat CG4 cells (PubMed=1613821; DOI=10.1002/jnr.490310125; Louis J. C., Magal E., Muir D., Manthorpe M., Varon S.; CG-4, a new bipotential glial cell line from rat brain, is capable of differentiating in vitro into either mature oligodendrocytes or type-2 astrocytes. J. Neurosci. Res. 31:193-204(1992) to express mCherry fluorescent reporter (Evercooren, Anne & Avellana-Adalid, V. & Vitry, Sandrine & Nait-Oumesmar, Brahim & Lachapelle, Francois. (1997). Expansion of Oligodendrocyte Progenitors for Myelin Repair. 10.1007/978-1-4615-5949-8_21) in mature oligodendrocytes only, and EGFP at all stage of the oligodendroglial lineage: both the generation of mature oligodendrocytes (wmNl-mCherry) and the morphological changes associated with differentiation (CMV-EGFP) can be therefore monitored in a single assay. mCherry expression occurred only in O4+/GalC+ differentiated oligodendrocytes and GFP was ubiquitously expressed at all developmental stages. […]
Compounds (272) were tested at 1 μM, using a double fluorescence CG4 cell line (rat OPC line), 9 cis-retinoic acid (1 μM) served as a positive control.

## O=C(N[C@@H]1CC[C@@H](c2cccc(F)c2F)CN(CC(F)(F)F)C1=O)N1CCC(n2c(=O)[nH]c3ncccc32)CC1 [Telcagepant]
[1]
  cytotoxicity on neonatal mouse OPCs: not toxic on oligodendrocytes
[2]
  cytotoxicity on CG4 line: not toxic on oligodendrocytes
